In general, MIC refers to the smallest concentration in the dilution series that meets the test's criterion for growth inhibition. The low end stands for greater potency, the high end for weaker potency.

Common to all, as to format: functional
Assay [1] has as its system Pseudomonas aeruginosa. As to the kind of experiment: Antibacterial activity against Pseudomonas aeruginosa KD491 clinical isolate after 16 to 20 hrs by microdilution assay. Background: Broth dilution looks for growth in wells or tubes with falling amounts of substance.
Assay [2] has as its system Pseudomonas aeruginosa. Description: Antibacterial activity against Pseudomonas aeruginosa VW1633 clinical isolate after 16 to 20 hrs by microdilution assay.
The subject of assay [3] is Pseudomonas aeruginosa. As to the kind of experiment: Antibacterial activity against Pseudomonas aeruginosa LES431 clinical isolate after 16 to 20 hrs by microdilution assay.
In assay [4] the test system is Pseudomonas aeruginosa. As to the kind of experiment: Antibacterial activity against Pseudomonas aeruginosa Clone C clinical isolate after 16 to 20 hrs by microdilution assay.
Assay [5] has as its system Pseudomonas aeruginosa. As to the kind of experiment: Antibacterial activity against Pseudomonas aeruginosa D599 clinical isolate after 16 to 20 hrs by microdilution assay.
In assay [6] the test system is Pseudomonas aeruginosa. As to the kind of experiment: Antibacterial activity against Pseudomonas aeruginosa PAO1 clinical isolate after 16 to 20 hrs by microdilution assay.
Assay [7] concerns Pseudomonas aeruginosa. As to the kind of experiment: Antibacterial activity against Pseudomonas aeruginosa VW1540 clinical isolate after 16 to 20 hrs by microdilution assay.
Assay [8] relates to Pseudomonas aeruginosa. As to the kind of experiment: Antibacterial activity against Pseudomonas aeruginosa VW1471 clinical isolate after 16 to 20 hrs by microdilution assay.
Assay [9] relates to Pseudomonas aeruginosa. As to the kind of experiment: Antibacterial activity against Pseudomonas aeruginosa LES400 clinical isolate after 16 to 20 hrs by microdilution assay.
Assay [10] relates to Pseudomonas aeruginosa. As to the kind of experiment: Antibacterial activity against Pseudomonas aeruginosa kl 3.2 clinical isolate after 16 to 20 hrs by microdilution assay.
Assay [11] deals with Pseudomonas aeruginosa. As to the kind of experiment: Antibacterial activity against Pseudomonas aeruginosa VW0247 clinical isolate after 16 to 20 hrs by microdilution assay.
In assay [12] the test system is Pseudomonas aeruginosa. As to the kind of experiment: Antibacterial activity against Pseudomonas aeruginosa VW178 clinical isolate after 16 to 20 hrs by microdilution assay.
For assay [13], the system named is Pseudomonas aeruginosa. As to the kind of experiment: Antibacterial activity against Pseudomonas aeruginosa MIDLANDS clinical isolate after 16 to 20 hrs by microdilution assay.
Assay [14] deals with Pseudomonas aeruginosa. As to the kind of experiment: Antibacterial activity against Pseudomonas aeruginosa VW313 clinical isolate after 16 to 20 hrs by microdilution assay.
In assay [15] the test system is Pseudomonas aeruginosa. Description: Antibacterial activity against Pseudomonas aeruginosa VW1485 clinical isolate after 16 to 20 hrs by microdilution assay.
The subject of assay [16] is Pseudomonas aeruginosa. As to the kind of experiment: Antibacterial activity against Pseudomonas aeruginosa LESB58 clinical isolate after 16 to 20 hrs by microdilution assay.
Assay [17] has as its system Pseudomonas aeruginosa. As to the kind of experiment: Antibacterial activity against Pseudomonas aeruginosa VW1501 clinical isolate after 16 to 20 hrs by microdilution assay.
Assay [18] relates to Pseudomonas aeruginosa. As to the kind of experiment: Antibacterial activity against Pseudomonas aeruginosa KD557 clinical isolate after 16 to 20 hrs by microdilution assay.
Assay [19] concerns Pseudomonas aeruginosa. As to the kind of experiment: Antibacterial activity against Pseudomonas aeruginosa VW1538 clinical isolate after 16 to 20 hrs by microdilution assay.
Assay [20] has as its system Pseudomonas aeruginosa. As to the kind of experiment: Antibacterial activity against Pseudomonas aeruginosa kl 1.1 clinical isolate after 16 to 20 hrs by microdilution assay.

In brackets after ≈: the same amount, converted by molar mass. Peptide text beside a SMILES is read from it. * marks the point of attachment. DEAC = CCN(CC)c1ccc2cc(C(=O)*)c(=O)oc2c1; Myristoyl = CCCCCCCCCCCCCC(=O)*; Lauroyl = CCCCCCCCCCCC(=O)*; Decanoyl = CCCCCCCCCC(=O)*; Octanoyl = CCCCCCCC(=O)*; Hexanoyl = CCCCCC(=O)* A value given as a limit tells only on which side of the number the result lay.

Take `CCCCCCCCCC(=O)N[C@@H](CCCNC(=N)N)C(=O)N[C@@H](Cc1c[nH]c2ccccc12)C(=O)N[C@@H](CCCNC(=N)N)C(=O)N[C@@H](Cc1c[nH]c2ccccc12)C(=O)N[C@@H](CCCNC(=N)N)C(=O)N[C@@H](Cc1c[nH]c2ccccc12)C(=O)N[C@@H](CCCCN)C(=O)O` (Decanoyl-RWRWRWK-OH): the MIC in assay [1] was 32 µg/mL (≈ 24.1 µM); in [2], 64 µg/mL (≈ 48.2 µM); in assay [3], 32 µg/mL (≈ 24.1 µM).

Consider `CCN(CC)c1ccc2cc(C(=O)NCCCC[C@H](NC(=O)[C@H](Cc3c[nH]c4ccccc34)NC(=O)[C@H](CCCNC(=N)N)NC(=O)[C@H](Cc3c[nH]c4ccccc34)NC(=O)[C@H](CCCNC(=N)N)NC(=O)[C@H](Cc3c[nH]c4ccccc34)NC(=O)[C@@H](N)CCCNC(=N)N)C(=O)O)c(=O)oc2c1` (H-RWRWRWK(DEAC)-OH), for which the MIC is 64 µg/mL (≈ 45.2 µM) in assay [1], 64 µg/mL (≈ 45.2 µM) in assay [2] and over 128 µg/mL in assay [3].

As to `CCCCCC(=O)NCCCC[C@H](NC(=O)[C@H](Cc1c[nH]c2ccccc12)NC(=O)[C@H](CCCNC(=N)N)NC(=O)[C@H](Cc1c[nH]c2ccccc12)NC(=O)[C@H](CCCNC(=N)N)NC(=O)[C@H](Cc1c[nH]c2ccccc12)NC(=O)[C@@H](N)CCCNC(=N)N)C(=O)O` (H-RWRWRWK(Hexanoyl)-OH), the figures for the MIC in [1], in [2] and in assay [3] were 32 µg/mL (≈ 25.2 µM), 16 µg/mL (≈ 12.6 µM) and over 128 µg/mL, respectively.

As for `CCCCCCCCCCCC(=O)NCCCC[C@H](NC(=O)[C@H](Cc1c[nH]c2ccccc12)NC(=O)[C@H](CCCNC(=N)N)NC(=O)[C@H](Cc1c[nH]c2ccccc12)NC(=O)[C@H](CCCNC(=N)N)NC(=O)[C@H](Cc1c[nH]c2ccccc12)NC(=O)[C@@H](N)CCCNC(=N)N)C(=O)O` (H-RWRWRWK(Lauroyl)-OH), the MIC in [1] was over 128 µg/mL; in [2] it was 32 µg/mL (≈ 23.6 µM); in assay [3] it was 64 µg/mL (≈ 47.2 µM).

`CCCCCCCCCCCCCC(=O)NCCCC[C@H](NC(=O)[C@H](Cc1c[nH]c2ccccc12)NC(=O)[C@H](CCCNC(=N)N)NC(=O)[C@H](Cc1c[nH]c2ccccc12)NC(=O)[C@H](CCCNC(=N)N)NC(=O)[C@H](Cc1c[nH]c2ccccc12)NC(=O)[C@@H](N)CCCNC(=N)N)C(=O)O` (H-RWRWRWK(Myristoyl)-OH): the MIC was over 128 µg/mL in [1], over 128 µg/mL in assay [2] and 128 µg/mL (≈ 92.5 µM) in assay [3].

`CCCCCCCC(=O)NCCCC[C@H](NC(=O)[C@H](Cc1c[nH]c2ccccc12)NC(=O)[C@H](CCCNC(=N)N)NC(=O)[C@H](Cc1c[nH]c2ccccc12)NC(=O)[C@H](CCCNC(=N)N)NC(=O)[C@H](Cc1c[nH]c2ccccc12)NC(=O)[C@@H](N)CCCNC(=N)N)C(=O)O` (H-RWRWRWK(Octanoyl)-OH): the MIC in assay [1] was determined as 16 µg/mL (≈ 12.3 µM); in [2] it was 16 µg/mL (≈ 12.3 µM); in [3] it was 128 µg/mL (≈ 98.5 µM).

With `CCCCCC(=O)N[C@@H](CCCNC(=N)N)C(=O)N[C@@H](Cc1c[nH]c2ccccc12)C(=O)N[C@@H](CCCNC(=N)N)C(=O)N[C@@H](Cc1c[nH]c2ccccc12)C(=O)N[C@@H](CCCNC(=N)N)C(=O)N[C@@H](Cc1c[nH]c2ccccc12)C(=O)N[C@@H](CCCCN)C(=O)O` (Hexanoyl-RWRWRWK-OH), the MIC is 64 µg/mL (≈ 50.3 µM) in assay [1], 32 µg/mL (≈ 25.2 µM) in assay [2] and over 128 µg/mL in assay [3].

As for `CCCCCCCCCCCC(=O)N[C@@H](CCCNC(=N)N)C(=O)N[C@@H](Cc1c[nH]c2ccccc12)C(=O)N[C@@H](CCCNC(=N)N)C(=O)N[C@@H](Cc1c[nH]c2ccccc12)C(=O)N[C@@H](CCCNC(=N)N)C(=O)N[C@@H](Cc1c[nH]c2ccccc12)C(=O)N[C@@H](CCCCN)C(=O)O` (Lauroyl-RWRWRWK-OH), the results for the MIC in assay [1], in assay [2] and in assay [3] were over 128 µg/mL, over 128 µg/mL and 64 µg/mL (≈ 47.2 µM), respectively.

As to `CCCCCCCCCCCCCC(=O)N[C@@H](CCCNC(=N)N)C(=O)N[C@@H](Cc1c[nH]c2ccccc12)C(=O)N[C@@H](CCCNC(=N)N)C(=O)N[C@@H](Cc1c[nH]c2ccccc12)C(=O)N[C@@H](CCCNC(=N)N)C(=O)N[C@@H](Cc1c[nH]c2ccccc12)C(=O)N[C@@H](CCCCN)C(=O)O` (Myristoyl-RWRWRWK-OH), the MIC in assay [1], in assay [2] and in assay [3] was over 128 µg/mL in each case.

`CCCCCCCC(=O)N[C@@H](CCCNC(=N)N)C(=O)N[C@@H](Cc1c[nH]c2ccccc12)C(=O)N[C@@H](CCCNC(=N)N)C(=O)N[C@@H](Cc1c[nH]c2ccccc12)C(=O)N[C@@H](CCCNC(=N)N)C(=O)N[C@@H](Cc1c[nH]c2ccccc12)C(=O)N[C@@H](CCCCN)C(=O)O` (Octanoyl-RWRWRWK-OH): the MIC in [1] amounted to 16 µg/mL (≈ 12.3 µM); in assay [2], 32 µg/mL (≈ 24.6 µM); in assay [3], 64 µg/mL (≈ 49.2 µM).

Turning to `CC(C)(O/N=C(\C(=O)N[C@@H]1C(=O)N2C(C(=O)[O-])=C(C[n+]3ccccc3)CS[C@H]12)c1csc(N)n1)C(=O)O` [CEFTAZIDIME], the MIC came out at 2 µg/mL (≈ 3.66 µM) in assay [4]; 1 µg/mL (≈ 1.83 µM) in assay [5]; 1 µg/mL (≈ 1.83 µM) in assay [6]; 16 µg/mL (≈ 29.3 µM) in [7]; 128 µg/mL (≈ 234 µM) in assay [8]; 32 µg/mL (≈ 58.5 µM) in assay [9]. Also, the MIC in assay [10] was 2 µg/mL (≈ 3.66 µM); in assay [11], 16 µg/mL (≈ 29.3 µM); in assay [1], over 256 µg/mL; in assay [12] it was 2 µg/mL (≈ 3.66 µM); in assay [13], 64 µg/mL (≈ 117 µM); in [2], over 256 µg/mL. In addition, the MIC in assay [14] was over 256 µg/mL; in assay [15] it was 8 µg/mL (≈ 14.6 µM); in assay [16] it was 256 µg/mL (≈ 468 µM); in assay [17] it was 4 µg/mL (≈ 7.32 µM); in assay [3], 256 µg/mL (≈ 468 µM); in assay [18], 2 µg/mL (≈ 3.66 µM). The MIC in assay [19] worked out at 8 µg/mL (≈ 14.6 µM); in [20], 2 µg/mL (≈ 3.66 µM).

As to `C[C@@H](O)[C@H]1C(=O)N2C(C(=O)O)=C(S[C@@H]3CN[C@H](C(=O)N(C)C)C3)[C@H](C)[C@H]12` [MEROPENEM], the MIC in assay [4] was 2 µg/mL (≈ 5.22 µM); in assay [5] it was 0.5 µg/mL (≈ 1.3 µM); in assay [6], 2 µg/mL (≈ 5.22 µM); in assay [7] it was 1 µg/mL (≈ 2.61 µM); in [8], 32 µg/mL (≈ 83.4 µM); in assay [9], 2 µg/mL (≈ 5.22 µM). Also, the MIC worked out at 4 µg/mL (≈ 10.4 µM) in [10]; 0.25 µg/mL (≈ 0.652 µM) in assay [11]; 16 µg/mL (≈ 41.7 µM) in assay [1]; 2 µg/mL (≈ 5.22 µM) in assay [12]; 16 µg/mL (≈ 41.7 µM) in assay [13]; 1 µg/mL (≈ 2.61 µM) in [2]. For the same compound, the MIC was determined as 16 µg/mL (≈ 41.7 µM) in assay [14]; 0.25 µg/mL (≈ 0.652 µM) in [15]; 2 µg/mL (≈ 5.22 µM) in assay [16]; 0.25 µg/mL (≈ 0.652 µM) in assay [17]; 8 µg/mL (≈ 20.9 µM) in assay [3]; 1 µg/mL (≈ 2.61 µM) in [18]. The MIC in assay [20] amounted to 4 µg/mL (≈ 10.4 µM).

For the origin of these results see ChEMBL document CHEMBL3779859, “Synergistic activity of a short lipidated antimicrobial peptide (lipoAMP) and colistin or tobramycin against Pseudomonas aeruginosa from cystic fibrosis patients” (Medchemcomm, 2016).
